Source: PubChem BioAssay (NCI)
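1) Cells in 96-well plates. 2) Compound, 48 h, 5 concentrations. 3) Linear interpolation between surrounding doses. 4) Unreached endpoint = highest concentration. GI50 marks 50% less growth. The concentration for full growth arrest is given as TGI.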

Legend:
Assay in all cases: DTP human tumour cell line panel, 48 h
ACHN renal = test system: ACHN renal
CCRF-CEM leukemia = test system: CCRF-CEM leukemia
HT29 colon = test system: HT29 colon
MALME-3M melanoma = test system: MALME-3M melanoma
NCI-H226 lung = test system: NCI-H226 lung
NCI-H23 lung = test system: NCI-H23 lung
NCI-H460 lung = test system: NCI-H460 lung
SF-539 CNS = test system: SF-539 CNS
UACC-257 melanoma = test system: UACC-257 melanoma
HOP-92 NSCLC = test system: HOP-92 NSCLC

SMILES	TGI (ACHN renal)	TGI (CCRF-CEM leukemia)	TGI (HT29 colon)	TGI (MALME-3M melanoma)	TGI (NCI-H226 lung)	TGI (NCI-H23 lung)	TGI (NCI-H460 lung)	TGI (SF-539 CNS)	TGI (UACC-257 melanoma)	TGI (HOP-92 NSCLC)	GI50 (ACHN renal)	GI50 (CCRF-CEM leukemia)	GI50 (HOP-92 NSCLC)	GI50 (HT29 colon)	GI50 (MALME-3M melanoma)	GI50 (NCI-H23 lung)	GI50 (NCI-H460 lung)	GI50 (SF-539 CNS)	GI50 (UACC-257 melanoma)	GI50 (NCI-H226 lung)
CC(C)(C)NCC(COc1ccc([N+](=O)[O-])cc1)OP(c1ccccc1)c1ccccc1 (stereo unspecified)	> 100 µM	79.2 µM	> 100 µM	67 µM	94.7 µM	> 100 µM	> 100 µM	> 100 µM	> 100 µM	–	–	–	–	–	–	–	–	–	–	–
O=C1[C@H]2ON(c3ccccc3)C(c3ccco3)[C@H]2C(=O)N1c1ccc(Cc2ccc(N3C(=O)[C@@H]4ON(c5ccccc5)C(c5ccco5)[C@@H]4C3=O)cc2)cc1 (stereo partly specified)	> 100 µM	> 100 µM	> 100 µM	> 100 µM	> 100 µM	> 100 µM	> 100 µM	> 100 µM	> 100 µM	> 100 µM	–	–	–	–	–	–	–	–	–	–
c1cnn2ncc(-c3ccnc(Nc4ccc5c(c4)OCCO5)n3)c2c1	> 25 µM	> 25 µM	0.358 µM	0.276 µM	–	0.286 µM	0.258 µM	0.222 µM	0.198 µM	0.162 µM	0.0549 µM	0.0879 µM	0.0593 µM	0.0691 µM	0.0833 µM	0.0692 µM	0.0731 µM	0.0679 µM	0.0671 µM	–
COc1cc(CNc2nc3ccc(C(F)(F)F)cc3nc2-c2ccccc2)cc(OC)c1OC	–	> 100 µM	> 100 µM	> 100 µM	–	> 100 µM	> 100 µM	> 100 µM	> 100 µM	–	–	–	–	–	–	–	–	–	–	–
COc1ccc(-c2c(C3=NCCCN3)nnn2-c2ccc([N+](=O)[O-])cc2)cc1	> 100 µM	> 100 µM	> 100 µM	> 100 µM	> 100 µM	> 100 µM	> 100 µM	> 100 µM	> 100 µM	> 100 µM	–	–	–	–	–	–	–	–	–	–
CC1OC(c2ccc3c(c2O)C(=O)C2=C(C3=O)C3(O)C(=O)CC(C)(O)CC3(O)C=C2)CC(O)C1O (stereo unspecified)	26.5 µM	5.27 µM	19.6 µM	12.8 µM	49.8 µM	45.6 µM	> 64.9 µM	35.6 µM	29.3 µM	30.7 µM	–	–	–	–	–	–	–	–	–	–
OCc1ccc(N2CCOCC2)cc1Cl	> 100 µM	> 100 µM	> 100 µM	> 100 µM	2.37 µM	> 100 µM	> 100 µM	> 100 µM	24.1 µM	> 100 µM	> 100 µM	> 100 µM	34.6 µM	> 81.8 µM	> 100 µM	> 100 µM	30.9 µM	> 100 µM	7.2 µM	0.705 µM
O=C1/C(=C/c2ccc([N+](=O)[O-])cc2)COc2ccc(O)cc21	4.12 µM	3.29 µM	–	75.2 µM	72.4 µM	36.3 µM	> 100 µM	18.3 µM	> 100 µM	> 100 µM	2.02 µM	0.647 µM	38.6 µM	–	13.9 µM	7.83 µM	9.03 µM	4.42 µM	32.1 µM	15.3 µM
C=C1C2Oc3ccccc3C1N(c1ccccc1)O2 (stereo unspecified)	> 100 µM	89.5 µM	67.5 µM	> 100 µM	> 100 µM	–	55.5 µM	57.3 µM	> 100 µM	–	–	–	–	–	–	–	–	–	–	–
CCCCCCCCCCCCCCCCCCOCC(COCCOCC[N+]1(CCCCCC(=O)[O-])CCCC1)Oc1ncccn1 (stereo unspecified)	23.7 µM	13.9 µM	13.7 µM	32.8 µM	26.7 µM	18.1 µM	16.8 µM	15.8 µM	22.7 µM	5.93 µM	–	–	–	–	–	–	–	–	–	–
Cc1ccc(C)c(N2C(=O)C(=O)C(c3nc4ccccc4s3)C(=Nc3cccc4c(=O)[nH][nH]c(=O)c34)C2=O)c1 (stereo unspecified)	> 100 µM	> 100 µM	> 100 µM	> 100 µM	> 100 µM	> 100 µM	> 100 µM	> 100 µM	> 100 µM	> 100 µM	–	–	–	–	–	–	–	–	–	–
N#Cc1c(-c2ccco2)cc(-c2ccccc2)[nH]c1=O	> 100 µM	> 100 µM	> 100 µM	> 100 µM	> 100 µM	> 100 µM	> 100 µM	> 100 µM	> 100 µM	> 100 µM	–	–	–	–	–	–	–	–	–	–
c1ccc2[nH]c(CNc3ccc(C4C[Se]N=N4)cc3)nc2c1 (stereo unspecified)	> 100 µM	82.5 µM	> 100 µM	> 100 µM	–	> 100 µM	> 100 µM	> 100 µM	–	> 100 µM	–	–	–	–	–	–	–	–	–	–
O=C1c2cccc3cccc(c23)C(=O)N1O	> 100 µM	> 100 µM	> 100 µM	> 100 µM	–	> 100 µM	> 100 µM	> 100 µM	> 100 µM	94.5 µM	–	–	–	–	–	–	–	–	–	–
O=C(O)c1ccccc1C(=O)c1ccc2c(c1)Cc1ccccc1-2	> 100 µM	–	> 100 µM	> 100 µM	> 100 µM	> 100 µM	> 100 µM	> 100 µM	> 100 µM	> 100 µM	–	–	–	–	–	–	–	–	–	–
CCCCCCCCCCCCCC[n+]1cccc(C(N)=O)c1	17.9 µM	4.47 µM	4.63 µM	4.21 µM	5.11 µM	13.6 µM	10.9 µM	–	8.46 µM	3.49 µM	3.46 µM	1.5 µM	0.657 µM	0.778 µM	1.75 µM	2.28 µM	3.09 µM	–	2.34 µM	1.63 µM
C/C1=C\CC[C@@](C)(O)[C@@H]2C[C@H](CC/C(C)=C/CC1)C1(CC1)C(=O)O2	> 100 µM	> 100 µM	> 100 µM	64.8 µM	76.2 µM	48.7 µM	> 100 µM	> 100 µM	> 100 µM	–	34.4 µM	76.1 µM	–	31.4 µM	21.6 µM	18.9 µM	51.5 µM	49.4 µM	77.8 µM	25.8 µM
Cc1cc(C)n(C2=NS(=O)(=O)c3ccccc3N2C)n1	> 100 µM	> 100 µM	> 100 µM	–	> 100 µM	> 100 µM	> 100 µM	> 100 µM	> 100 µM	> 100 µM	–	–	–	–	–	–	–	–	–	–
